Experiment [1] concerns MMP-3 levels in supernatant of chondrocytes stimulated with IL1-β. Briefly: Chondrocyte protection assay compound screening (MMP-3 LANCE Ultra). The class given is cell-based, human. The note with it: Homo sapiens, Chondrocyte, IL1-β 10 ng/mL overnight, 11-point curves from 3 μM to 0.05 nM; for Emax: read-out: Maximum % Inhibition. As to the method: Human Chondrocyte Cell Culture: Primary human chondrocytes were purchased from Lonza (Walkersville, Md.) and expanded in Chondrocyte Growth Media (CGM, Lonza). Cells between passage 2 and 5 were used for the experiments.
Chondrocytes were plated at 8,000 cells/well in 40 μL/well Chondrocyte Differentiation Medium (Lonza; 500 mL Basal Medium, 25 mL FBS, 0.5 mL GA-1000, 1 mL R3-IGF, 2.5 mL bFGF, 0.5 mL Transferrin, and 1 mL Insulin). After 2 hours of incubation at 37° C. and 5% CO2, IL1-β (Peprotech, Rocky Hill, N.J.) was added to a final concentration of 10 ng/mL. 11 wells in 1 row were left unstimulated for normalization and calculating EC50 values. Cells were incubated at 37° C. and 5% CO2 overnight. Assay plates are spun, 25 μl of supernatant media was collected using (S2 pipettor, Apricot Designs). Cells were lysed using 10 μL of (Cell Titer-Glo, Promega). Luminescent signal detected using an En Vision Multilabel reader (Perkin Elmer). MMP-3 levels were measured in supernatant. Supernatant diluted 1:7 in DMEM. MMP-3 levels in the supernatant were measured using MMP-3 LANCE Ultra detection kit (Perkin Elmer). Briefly, 5 μL of diluted supernatant was transferred to low-volume 384 well plates using (S2 pipettor, Apricot Designs). A standard curve was prepared using MMP-3 analyte (range […]). 1.7 μL of 8× mix of Eu-labelled anti-MMP-3 antibody and ULight labelled anti-MMP-3 antibody was added to the plates using Mantis Liquid handler (Formulatrix). Plates were incubated overnight at room temperature. LANCE signal was detected using an EnVision Multilabel reader (Perkin Elmer), equipped with TR-FRET using excitation wavelength of 320 nm and two emission wavelengths of 615 nm and 665 nm. Data was analyzed according to the kit protocol, using the ratio of […] and the standard curve values were used to calculate the amount of MMP3 in the […] (in pg/ml). The normalized averages (fold change over IL1-β stimulated) for each compound concentration were calculated. EC50 and maximum % inhibition values were calculated using the dose-response nonlinear regression curve-fit in Dotmatics.

In a further experiment the target is CLK2 kinase (Homo sapiens, UniProt P49760). Briefly: CLK2 kinase activity assay (Z-lyte FRET).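 Note: FRET read-out as coumarin to fluorescein emission ratio, unphosphorylated peptide as 0% and phosphorylated peptide as 100% controls, duplicate reactions, non-linear regression fit of dose-response curves.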 It is filed as biochemical. The note with it: Z-lyte Ser/Thr 6 peptide, 60 μM ATP, 1 h at room temperature.
Sequence of CLK2 kinase (P49760 whole entry): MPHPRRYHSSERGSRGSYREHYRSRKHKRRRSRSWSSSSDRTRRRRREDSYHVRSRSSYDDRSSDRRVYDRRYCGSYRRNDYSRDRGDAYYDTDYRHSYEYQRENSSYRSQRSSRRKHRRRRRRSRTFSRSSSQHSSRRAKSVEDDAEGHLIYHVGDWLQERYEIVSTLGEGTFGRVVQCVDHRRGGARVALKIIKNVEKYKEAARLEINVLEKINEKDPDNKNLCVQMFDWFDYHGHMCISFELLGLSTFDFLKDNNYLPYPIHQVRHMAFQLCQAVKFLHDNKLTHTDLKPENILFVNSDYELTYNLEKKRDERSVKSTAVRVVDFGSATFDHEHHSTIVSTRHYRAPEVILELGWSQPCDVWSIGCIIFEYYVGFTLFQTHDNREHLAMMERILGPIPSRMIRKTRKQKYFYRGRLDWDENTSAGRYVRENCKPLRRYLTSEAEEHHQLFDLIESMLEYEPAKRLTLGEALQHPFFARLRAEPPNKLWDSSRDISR
A further experiment deals with CLK3 kinase (Homo sapiens, UniProt P49761). Briefly: CLK3 kinase activity assay (Z-lyte FRET).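 Note: kinase activity read as coumarin/fluorescein emission ratio by FRET, unphosphorylated peptide as 0% and phosphorylated peptide as 100% control, values from non-linear regression of dose-response curves.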 The class given is biochemical. The note with it: Z-lyte Ser/Thr 18 peptide, 156 μM ATP, 1 h at room temperature.
Sequence of CLK3 kinase (P49761 whole entry): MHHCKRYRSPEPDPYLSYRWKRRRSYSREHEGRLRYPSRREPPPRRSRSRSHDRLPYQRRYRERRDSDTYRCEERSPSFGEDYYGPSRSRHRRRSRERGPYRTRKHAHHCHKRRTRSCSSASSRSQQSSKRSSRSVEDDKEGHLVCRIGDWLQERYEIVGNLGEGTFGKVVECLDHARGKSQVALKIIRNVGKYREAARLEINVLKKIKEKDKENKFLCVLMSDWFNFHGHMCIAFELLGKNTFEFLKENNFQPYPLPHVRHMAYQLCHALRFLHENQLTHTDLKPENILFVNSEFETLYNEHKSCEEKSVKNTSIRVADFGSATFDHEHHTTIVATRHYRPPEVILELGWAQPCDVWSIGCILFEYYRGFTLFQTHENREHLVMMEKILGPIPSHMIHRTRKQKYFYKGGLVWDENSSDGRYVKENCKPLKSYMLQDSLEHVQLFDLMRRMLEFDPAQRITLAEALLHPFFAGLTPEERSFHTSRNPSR

Molecules are shown by their SMILES. Bounds are passed on as bounds.

One may read the EC50 as the midpoint of the concentration-response curve. Read a low EC50 as higher potency in that assay. Take `CN1CCC2(CC1)CN(c1cc(C(=O)Nc3cc4cc(-c5cnn(C)c5)ccc4cn3)ccn1)C2` [compound 554]: the EC50 in experiment [1] was not below 3000 nM; on CLK2 kinase it was 1 nM; at CLK3 kinase, 16 nM. The Emax in experiment [1] was determined as 53.7%.
Regarding `Cn1ncc(-c2ccc3cnc(NC(=O)c4ccnc(N5CCOCC5)c4)cc3c2)c1CN1CCOCC1` [compound 573], the EC50 in experiment [1] is not below 3000 nM; at CLK2 kinase, 2 nM; at CLK3 kinase, 8 nM. Also, the Emax in experiment [1] was found to be 70%.
In the same order, the values of `CN1CCN(c2ccc(C(=O)N3CCN(c4cc(C(=O)Nc5cc6cc(-c7cnn(C)c7)ccc6cn5)ccn4)CC3)cn2)CC1` [compound 553] are 304 nM, 2 nM, 280 nM and 52.3%.
For the molecule `CN1CCN(c2cc(C(=O)Nc3cc4cc(-c5cnc(N)s5)ccc4cn3)ccn2)CC1` [compound 593], the EC50 was 0.4 nM in experiment [1], 3 nM at CLK2 kinase and 22 nM on CLK3 kinase. The Emax in experiment [1] amounted to 62.9%.
For `CN1CCN(c2ccc(C(=O)Nc3cc4cc(-c5cnn6c5CN(CCF)CC6)ccc4cn3)cn2)CC1` [compound 576], in that order: not below 3000 nM, 2 nM, 81 nM and 62.6%.
For `Cn1cc(-c2ccc3cnc(NC(=O)c4ccc5c(c4)CNCC5)cc3c2)cn1` [compound 557], in that order: 1630 nM, 2 nM, 39 nM and 50.5%.
Regarding `Cn1cc(-c2ccc3cnc(NC(=O)c4ccnc(N5CC6CC5CN6)c4)cc3c2)cn1` (stereo not shown) [compound 549], the figures for the EC50 (in experiment [1]; at CLK2 kinase; on CLK3 kinase) were not below 3000 nM, 3 nM and 26 nM, respectively. For the same molecule, the Emax in experiment [1] is 69%.
As to `Cn1cc(-c2ccc3cnc(NC(=O)c4ccnc(OC5CNC5)c4)cc3c2)cn1` [compound 556], the EC50 in experiment [1] stood at 154 nM; on CLK2 kinase, 2 nM; at CLK3 kinase, 38 nM. The Emax in experiment [1] was determined as 100%.
For `CN1Cc2ccc(C(=O)Nc3cc4cc(-c5cncn5C)ccc4cn3)cc2C1` [compound 583], in that order: not below 3000 nM, 2 nM, 27 nM and 67.5%.
Take `CN1CCN(c2cc(C(=O)Nc3cc4c(Cl)c(-c5cnn(C)c5)ccc4cn3)ccn2)CC1` [compound 547]: the figures for the EC50 (in experiment [1]; on CLK2 kinase; on CLK3 kinase) were 898 nM, 3 nM and 43 nM, respectively. In experiment [1], the Emax was determined as 52.1%.
For `Cc1ncc(-c2ccc3cnc(NC(=O)c4ccc(OC(C)C)cc4)cc3c2)n1C` [compound 588], in that order: 10.5 nM, 2 nM, 70 nM and 74.7%.
In the same order, the values of `Cn1cc(-c2ccc3cnc(NC(=O)c4ccc5cnccc5c4)cc3c2)cn1` [compound 560] are not below 3000 nM, 4 nM, 85 nM and 63.6%.
In the same order, the values of `NC1CN(c2cc(C(=O)Nc3cc4cc(-c5cnco5)ccc4cn3)ccn2)C1` [compound 590] are not below 3000 nM, 4 nM, 40 nM and 33.2%.
`CN(C)CCNc1cc(C(=O)Nc2cc3cc(-c4cnn(C)c4)ccc3cn2)ccn1` [compound 543]: the EC50 in experiment [1] came to 306 nM; on CLK2 kinase it was 3 nM; on CLK3 kinase it was 60 nM. Further, the Emax in experiment [1] is 81.8%.
In the same order, the values of `CN1CCN(c2cc(C(=O)Nc3cc4cc(-c5cnn(C6CC6)c5)ccc4cn3)ccn2)CC1` [compound 565] are 12.2 nM, 6 nM, 71 nM and 76.6%.
Take `Cn1ncc(-c2ccc3cnc(NC(=O)c4ccc(OC(F)F)cc4)cc3c2)c1CO` [compound 567]: the values for the 50% effective concentration (EC50) (in experiment [1]; on CLK2 kinase; on CLK3 kinase) were 1370 nM, 8 nM and 261 nM, respectively. For the same molecule, the Emax in experiment [1] worked out at 69.8%.
